Experimental findings from patent US6350743B1, “Cytotoxic pyridoacridine alkaloids” (Instituto Biomar, S.A., priority 1997, dated 2002) are described below.

Common to all, as to type: cell-based
The subject of experiment [1] is A-549 (monolayer culture of a human lung carcinoma). The experiment can be described thus: Antitumor screening, A-549 cell growth (Crystal Violet). The conditions noted are these: A549, 72 h, A-549 cells, three days of incubation, approximate IC50. The procedure: (§1) Cells were maintained in logarithmic phase of growth in Eagle's Minimum Essential Medium, with Earle's Balanced Salts, with 2.0 mM L-glutamine, with non-essential amino acids, without sodium bicarbonate (EMEM/neaa); supplemented with 10% Fetal Calf Serum (FCS), 10^−2 M sodium bicarbonate and 0.1 g/l penicillin+G streptomycin sulfate.
(§2) A screening procedure has been carried out to determine and compare the antitumor activity of these compounds, using an adapted form of the method described by Bergeron et al. (Reference 15: Raymond J. Bergeron, Paul F. Cavanaugh, Jr., Steven J. Kline, Robert G. Hughes, Jr., Gary T. Elliot and Carl W. Porter. Antineoplastic and antiherpetic activity of spermidine catecholamide iron chelators. Biochem. Bioph. Res. Comm. 1984, 121, 848-854). The antitumor cells employed were P-388 (suspension culture of a lymphoid neoplasm from DBA/2 mouse), A-549 (monolayer culture of a human lung carcinoma), HT-29 (monolayer culture of a human colon carcinoma) and MEL-28 (monolayer culture of a human melanoma).
(§3) A-549, HT-29 cells were seeded into 16 mm wells at 2×10^4 cells per well in 1 ml aliquots of MEM 10FCS containing the indicated concentration of drug. […] An approximately IC50 was determined by comparing the growth in wells with drug to the growth in wells control.

For experiment [2], the system named is MEL-28 (monolayer culture of a human melanoma). As to the kind of experiment: Antitumor screening, MEL-28 cell growth. The conditions noted are these: SK-MEL-28, MEL-28 cells, approximate IC50. The procedure:
as §1, §2, §3

Experiment [3] has as its system HT-29 (monolayer culture of a human colon carcinoma). The experiment can be described thus: Antitumor screening, HT-29 cell growth (Crystal Violet). The conditions noted are these: 72 h, HT-29 cells, three days of incubation, approximate IC50. How it is done:
as §1, §2, §3

In experiment [4] the test system is P-388 (suspension culture of a lymphoid neoplasm from DBA/2 mouse). As to the kind of experiment: Antitumor screening, P-388 cell growth. The following applies: P388, 72 h, P-388 cells, three days of incubation, approximate IC50 vs control growth. The procedure: as §1, §2
P-388 cells were seeded into 16 mm wells at 1×10^4 cells per well in 1 ml aliquots of MEM 5FCS containing the indicated concentration of drug. A separate set of cultures without drug was seeded as control growth to ensure that cells remained in exponential phase of growth. All determinations were carried out in duplicate. […]

Molecules are shown by their SMILES.

As to `CN(C)CCc1c2c(c3nccc4c3c1Nc1ccccc1-4)NC(=O)CS2` [Shermilamine D], the IC50 in experiment [1] is 0.27 µM; in experiment [2] it was 0.53 µM; in experiment [3] it was 2.66 µM; in experiment [4], 1.33 µM.

For orientation: IC50 means the concentration that inhibits the measured activity by half.
